Where no end group is shown, it is not given here.
How the values were obtained:
[1] = system: rat bone marrow mesenchymal stem cells (rBMSCs); test: Preliminary study: chondroinductivity with rBMSCs by rt-PCR; format: cell-based; conditions: 100 ng/ml in medium, 3 days, p<0.05
Experimental: In a preliminary study, the chondroinductivities of Link N peptide (SEQ ID NO: 9, Table 2) and SPPEPS (SEQ ID NO:2) with rBMSCs were evaluated at two plate coating densities (0.5 and 1 μg/mm2) and two soluble concentrations (10 and 100 ng/mL) after 3 days by rt-PCR (n=3). For rBMSCs cultured on TCT plates the chondroinductivity was compared with negative control (no growth factor or peptide in the cell culture medium) and positive control group. The positive control was a known chondrogenic growth factor in lieu of the SPPEPS (SEQ ID NO:2) peptide, i.e., 10 ng/ml (dissolved in rBMSCs cell culture medium) human transforming growth factor-β3 (TGF-β3, R&D systems, Minneapolis, MN).
The gene expressions were analyzed for all the rBMSCs samples cultured on the TCT plates after 3 days (n=6) and all the rBMSCs cultured on the hydrogel surface after 3 days (n=4). The gene expressions of each sample were evaluated in triplicate. […] GAPDH was used as an endogenous control, with relative gene expression measured using the 2^−ΔΔCt method. […]

[2] = system: rat bone marrow mesenchymal stem cells (rBMSCs); test: Gene expression (rt-PCR) of rBMSCs on TCT plates, SPPEPS coated or in medium; format: cell-based
Experimental: In one set of experimental groups, the SPPEPS (SEQ ID NO:2) peptide was adsorbed to the well plate surface. The peptide was dissolved in sterile DI water (20 μg/mL), sterile-filtered (0.22 μm), and was added to sterile 96-well plates to reach the desired coating concentrations (0.5, 1 and 3 μg/mm2) before overnight water evaporation at room temperature in sterile conditions. The rBMSCs were thawed and after passage 4 were cultured on the plates (150,000 cells/well, i.e., […]), for the control groups the rBMSCs were cultured (150,000 cells/well) on the uncoated TCT plates and the cell culture medium was changed every second day.
In a separate set of experimental groups, SPPEPS (SEQ ID NO:2) peptide was included in soluble form in the medium instead of being coated on the surface. rBMSCs were cultured on 96-well plates (150,000 cells/well) with cell culture medium containing SPPEPS (SEQ ID NO:2) (50, 100 and 500 ng/ml). The cell culture medium containing the peptide was changed every second day.
rBMSCs were cultured either on TCT plastic plates or on a hydrogel-coated surface. For the cells cultured on TCT plates, three different concentrations of SPPEPS (SEQ ID NO:2) peptide (50, 100 and 500 ng/ml) in cell culture medium, three different coating concentrations (0.5, 1 and 3 μg/mm2) and a control group (no growth factor or peptide in the cell culture medium) were chosen (n=6) and the peptide chondroinductivity was evaluated by rt-PCR after 3 days (see FIGS. 2-4 and gene expression subsection below).
The gene expressions were analyzed for all the rBMSCs samples cultured on the TCT plates after 3 days (n=6) and all the rBMSCs cultured on the hydrogel surface after 3 days (n=4). The gene expressions of each sample were evaluated in triplicate. To prepare the samples for gene expression, the mRNAs were extracted after 3 days using Qiagen RNeasy mini kit (Valencia, CA) following the kit instructions, before reverse transcription using a cDNA kit (Invitrogen, Carlsbad, CA). rt-PCR was performed with a qTOWER^3 Thermal Cycler (Upland. CA) using TaqMan Col2A1, Sox9, ACAN and GAPDH primers (Invitrogen, Carlsbad, CA). GAPDH was used as an endogenous control, with relative gene expression measured using the 2^−ΔΔCt method. For cells on both surfaces, the calibrators were the rBMSCs at passage 4 before transferring them to the 96-well plates.

rBMSC spheroids = test: Collagen II gene expression of rBMSC spheroids (SPPEPS vs TGF-β3); format: cell-based, rat; conditions: 100 ng/ml SPPEPS; normoxic and hypoxic; n=5
Experimental: Collagen II gene expression with control (no supplement), TGF-β3, or SPPEPS (1, 100 ng/ml). Hypoxic bars are righthand, normoxic bars are lefthand. n=5, p<0.05 difference from αnormoxic control, βhypoxic control, *normoxic counterpart, SSPPEPS (SEQ ID NO: 2) 1 ng/ml, #normoxic TGF-β3,!all groups.

[3] = 50 ng/ml, 100 ng/ml and 500 ng/ml groups, 3 days
[4] = 100 ng/ml in medium, 3 days, p<0.05
[5] = coating 0.5 μg/mm2, 3 days, p<0.05
[6] = coating 1 μg/mm2, 3 days, p<0.05
[7] = coating 3 μg/mm2, 3 days, p<0.05

With SPPEPS [chondroinductive peptide] the “collagen type II gene expression, times higher than in the control group” value [1] was 2.3 times, the “Sox9 gene expression, times higher than coating group” value ([2]; 50 ng/ml in medium vs coating 0.5 μg/mm2) was 4.5 times and the “Sox9 gene expression, times higher than coating group” value ([2]; 50 ng/ml in medium vs coating 1 μg/mm2) was 4.9 times. The “Sox9 gene expression, times higher than coating group” value ([2]; 50 ng/ml in medium vs coating 3 μg/mm2) was 5.2 times, the “aggrecan gene expression higher compared to the control group” value ([2]; 50 ng/ml in medium, 3 days, p<0.05) was 34% and the “aggrecan gene expression higher than the control group (FIG. 4 legend)” value [2, 3] was about 35%. The “aggrecan gene expression relative to the control group (FIG. 4 legend)” value [2, 3] was “about 1.5 ×”, the “collagen type II gene expression higher than the control group (FIG. 3 legend)” value ([2]; 100 ng/ml in medium, 3 days) was 35% and the “aggrecan gene expression higher compared to the control group” value [2, 4] was 35%. The “collagen type II gene expression, times higher than in the control group” value [2, 4] was 1.5 times, the “collagen type II gene expression, times higher compared to SPPEPS 50 ng/mL” value ([2]; 100 ng/ml in medium, p<0.05) was 1.5 times and the “collagen type II gene expression, times higher compared to SPPEPS 500 ng/mL” value ([2]; 100 ng/ml in medium, p<0.05) was 1.6 times. The “Sox9 gene expression, times higher than coating group” value ([2]; 500 ng/ml in medium vs coating 0.5 μg/mm2) was 3.2 times, the “Sox9 gene expression, times higher than coating group” value ([2]; 500 ng/ml in medium vs coating 1 μg/mm2) was 3.4 times and the “Sox9 gene expression, times higher than coating group” value ([2]; 500 ng/ml in medium vs coating 3 μg/mm2) was 3.6 times. The “aggrecan gene expression higher compared to the control group” value ([2]; 500 ng/ml in medium, 3 days, p<0.05) was 31%, the “Sox9 gene expression: control group times higher than coating group” value [2, 5] was 4.0 times and the “collagen type II gene expression lower than in the control group” value [2, 5] was 61%. The “Sox9 gene expression: control group times higher than coating group” value [2, 6] was 4.2 times, the “collagen type II gene expression lower than in the control group” value [2, 6] was 74% and the “Sox9 gene expression: control group times higher than coating group” value [2, 7] was 4.5 times. For the same substance, the “aggrecan gene expression higher compared to the control group” value [2, 7] was 31%, the “collagen type II gene expression lower than in the control group” value [2, 7] was 75% and the “chondroinduction (collagen II gene expression) compared to TGF-β3” value (rBMSC spheroids) was “outperforms TGF-β3”.
